Patent US20210380595A1 (ARAXES PHARMA LLC, priority 2018, published 2021)

Target: T1, KRAS G12C 1-169, his-tagged protein, GDP-loaded (Homo sapiens, UniProt P01116, G12C)
T1 construct: KRAS G12C 1-169, his-tagged protein, GDP-loaded
Test: Biochemical assay: covalent modification of KRAS G12C measured by mass spectrometry (RapidFire/TOF or Q-Exactive)
Format: binding
Conditions: tested at 32 μM
Method: Test compounds were prepared as 10 mM stock solutions in DMSO (Fisher cat. #BP-231-100). KRAS G12C 1-169, his-tagged protein, GDP-loaded is diluted to 2 μM or 0.5 μM in buffer (20 mM Hepes, 150 mM NaCl, 1 mM MgCl2). Compounds were tested for activity as follows:
Compounds were diluted to 50× final test concentration in DMSO in 96-well storage plates. Compound stock solutions were vortexed before use and observed cwerefully for any sign of precipitation. Dilutions were as follow: • For 32 μM final compound concentration, compounds were diluted to 1600 μM (3 μL 10 mM compound stock +15.75 μL DMSO and mixed well by pipetting. • For 8 μM final compound concentration, compounds were diluted to 400 μM (2 μL 10 mM compound stock +48 μL DMSO) and mixed well by pipetting. 49 μL of the stock protein solution was added to each well of a 96-well PCR plate (Fisher cat#1423027). 1 μl of the diluted 50× compounds were added to appropriate wells in the PCR plate using 12-channel pipettor. Reactions were mixed carefully and thoroughly by pipetting up/down with a 200 μL multi-channel pipettor. The plate was sealed well with aluminum plate seal, and protein and compound were allowed to react for a desired amount of time. 5 μL of 2% formic acid (Fisher cat#A117) in de-ionized H2O was then added to each well followed by mixing with a pipette to quench the reaction. The plate was then resealed with aluminum seal and stored frozen on dry ice until analyzed as described below.
The above described assays were analyzed by mass spectrometry according to one of the following two procedures:
The MS instrument was set to positive polarity, 2 GHz resolution, and low mass (1700) mode and allowed to equilibrate for 30 minutes. The instrument was then calibrated, switched to acquisition mode and the appropriate method loaded.
After another 30 minute equilibration time, a blank batch (i.e., buffer) was run to ensure equipment is operating properly. The samples were thawed at 37° C. for 10 minutes, briefly centrifuged, and transfered to the bench top. Wells A1 and H12 were spiked with 1 μL 500 μM internal standard peptide, and the plates centrifuged at 2000×g for 5 minutes. The method was then run and masses of each individual well recorded.
The masses (for which integration data is desired) for each well were pasted into the platemap and exported from the analysis. Masses for the internal standards were exported as well. The data at 50 ppm was extracted for the +19 charge state, and identity of well A1 was assigned using the internal standard spike and integrated. Peak data was exported as a TOF list and the above steps were repeated individually, for the +20, +21, +22, +23, +24, and +25 charge states.
The masses and peak intensities of KRAS G12C protein species were measured using a Dionex RSLCnano system (Thermo Scientific) connected to a Q Exactive Plus mass spectrometer (Thermo Scientific).
20 μL of sample was loaded onto a Aeris™ 3.6 μm WIDEPORE C4 200 Å, LC Column 50×2.1 mm column maintained at 40° C. at a flow rate of 600 μL/min with 80% Solvent A (0.1% formic acid in H2O) and 20% Solvent B (0.1% formic acid in acetonitrile). The liquid chromatography conditions were 20% solvent B for 1 minute, 20% to 60% solvent B for 1.5 minutes, 60% to 90% solvent for 0.5 minute, 90% solvent B for 0.2 minute, 90% to 20% solvent B for 0.2 minute, and then equilibrated for 1.6 minute before the following sample injection. The flow rate was maintained at 600 μL/min throughout the sample analysis.
The mass spectrometer was operated in profile mode at a resolution of 17500, 5 microscans, using 50 msec max injection time and an AGC target of 1×10^6, and a full mass range from 800-1850 m/z was recorded. The intact protein mode was applied for optimal ion transfer and maximum sensitivity. The ionization method was electrospray ionization, which used a spray voltage of 4 kV, sheath gas flow set to 50 AU, auxiliary gas flow set to 10 AU and sweep gas flow set to 1 AU. […]

Row | Structure (SMILES) | Bind %
1 | C=CC(=O)N1CC2(CCN(c3ccc(F)c(-c4c(C)ccc5[nH]ncc45)c3C#N)CC2)C1 (atropisomer, axis not shown) [Compound I-140, (R)-6-(2-acryloyl-2,7-diazaspiro[3.5]nonan-7-yl)-3-fluoro-2-(5-methyl-1H-indazol-4-yl)benzonitrile] | + (+ indicates binding activity greater than 0% and up to 50%)
2 | C=CC(=O)N1CC2(CCN(c3ccc(F)c(-c4c(C)ccc5[nH]ncc45)c3C#N)CC2)C1 (atropisomer, axis not shown) [Compound I-141, (S)-6-(2-acryloyl-2,7-diazaspiro[3.5]nonan-7-yl)-3-fluoro-2-(5-methyl-1H-indazol-4-yl)benzonitrile] | + (+ indicates binding activity greater than 0% and up to 50%)
3 | C=CC(=O)N1CC2(CCN(c3cccc(-c4c(C)ccc5[nH]ncc45)c3C#N)C2)C1 [Compound I-1, 2-(2-acryloyl-2,6-diazaspiro[3.4]octan-6-yl)-6-(5-methyl-1H-indazol-4-yl)benzonitrile] | +++ (+++ indicates binding activity greater than 75%)
4 | C=CC(=O)N1CC2(CCN(c3cccc(-c4c(C)ccc5[nH]ncc45)c3OC)C2)C1 [Compound I-2, 1-(6-(2-methoxy-3-(5-methyl-1H-indazol-4-yl)phenyl)-2,6-diazaspiro[3.4]octan-2-yl)prop-2-en-1-one] | + (+ indicates binding activity greater than 0% and up to 50%)
5 | C=CC(=O)N1CC2(CCN(c3cccc(-c4c(C)ccc5cnn(C)c45)c3F)C2)C1 [Compound I-3, 1-(6-(3-(1,6-dimethyl-1H-indazol-7-yl)-2-fluorophenyl)-2,6-diazaspiro[3.4]octan-2-yl)prop-2-en-1-one] | + (+ indicates binding activity greater than 0% and up to 50%)
6 | CC#CC(=O)N1CC2(CCN(c3cccc(-c4c(C)ccc5[nH]ncc45)c3C#N)C2)C1 [Compound I-4, 2-(2-(but-2-ynoyl)-2,6-diazaspiro[3.4]octan-6-yl)-6-(5-methyl-1H-indazol-4-yl)benzonitrile] | + (+ indicates binding activity greater than 0% and up to 50%)
7 | C=CC(=O)N1CC2(CCN(c3cccc(-c4c(C)ccc5cnn(C)c45)c3OC)C2)C1 [Compound I-5, 1-(6-(3-(1,6-dimethyl-1H-indazol-7-yl)-2-methoxyphenyl)-2,6-diazaspiro[3.4]octan-2-yl)prop-2-en-1-one] | ++ (++ indicates binding activity from 50 to 75%)
8 | C=CC(=O)N1CCC2(CCN(c3cccc(-c4c(O)cccc4F)c3C#N)C2)C1 (stereo not shown) [Compound I-6, 3-(7-acryloyl-2,7-diazaspiro[4.4]nonan-2-yl)-2′-fluoro-6′-hydroxy-[1,1′-biphenyl]-2-carbonitrile] | + (+ indicates binding activity greater than 0% and up to 50%)
9 | C=CC(=O)N1CC2(CCN(c3cc(N4CCOCC4)cc(-c4c(C)ccc5[nH]ncc45)c3C#N)C2)C1 [Compound I-7, 2-(2-acryloyl-2,6-diazaspiro[3.4]octan-6-yl)-6-(5-methyl-1H-indazol-4-yl)-4-morpholino-benzonitrile] | +++ (+++ indicates binding activity greater than 75%)
10 | C=CC(=O)N1CC2(CCN(c3cccc(-c4c(C)ccc5[nH]ncc45)c3F)C2)C1 [Compound I-8, 1-(6-(2-fluoro-3-(5-methyl-1H-indazol-4-yl)phenyl)-2,6-diazaspiro[3.4]octan-2-yl)prop-2-en-1-one] | + (+ indicates binding activity greater than 0% and up to 50%)
11 | C=CC(=O)N1CCC2(C1)CN(c1cccc(-c3c(C)ccc4[nH]ncc34)c1C#N)C2 [Compound I-9, 2-(6-acryloyl-2,6-diazaspiro[3.4]octan-2-yl)-6-(5-methyl-1H-indazol-4-yl)benzonitrile] | + (+ indicates binding activity greater than 0% and up to 50%)
12 | C=CC(=O)N1CCC2(C1)CN(c1cccc(-c3c(O)cccc3F)c1C#N)C2 [Compound I-10, 3-(6-acryloyl-2,6-diazaspiro[3.4]octan-2-yl)-2′-fluoro-6′-hydroxy-[1,1′-biphenyl]-2-carbonitrile] | + (+ indicates binding activity greater than 0% and up to 50%)
13 | C=CC(=O)N1CCC2(C1)CN(c1cccc(-c3c(C)ccc4cnn(C)c34)c1C#N)C2 [Compound I-11, 2-(6-acryloyl-2,6-diazaspiro[3.4]octan-2-yl)-6-(1,6-dimethyl-1H-indazol-7-yl)benzonitrile] | + (+ indicates binding activity greater than 0% and up to 50%)
14 | CC#CC(=O)N1CC2(CCN(c3cccc(-c4c(C)ccc5cnn(C)c45)c3C#N)C2)C1 [Compound I-12, 2-(2-(but-2-ynoyl)-2,6-diazaspiro[3.4]octan-6-yl)-6-(1,6-dimethyl-1H-indazol-7-yl)benzonitrile] | + (+ indicates binding activity greater than 0% and up to 50%)
15 | C=CC(=O)N1CCC2(CCN(c3cccc(-c4c(C)ccc5cnn(C)c45)c3C#N)C2)C1 (stereo not shown) [Compound I-13, 2-(7-acryloyl-2,7-diazaspiro[4.4]nonan-2-yl)-6-(1,6-dimethyl-1H-indazol-7-yl)benzonitrile] | + (+ indicates binding activity greater than 0% and up to 50%)
16 | C=CC(=O)N1CC2(CCN(c3cc(OC)cc(-c4c(C)ccc5[nH]ncc45)c3C#N)C2)C1 [Compound I-14, 2-(2-acryloyl-2,6-diazaspiro[3.4]octan-6-yl)-4-methoxy-6-(5-methyl-1H-indazol-4-yl)benzonitrile] | +++ (+++ indicates binding activity greater than 75%)
17 | C=CC(=O)N1CCC2(CC1)CN(c1cccc(-c3c(C)ccc4cnn(C)c34)c1C#N)C2 [Compound I-15, 2-(7-acryloyl-2,7-diazaspiro[3.5]nonan-2-yl)-6-(1,6-dimethyl-1H-indazol-7-yl)benzonitrile] | + (+ indicates binding activity greater than 0% and up to 50%)
18 | C=CC(=O)N1CC2(CCN(c3cc(N4CCOCC4)cc(-c4c(C)ccc5cnn(C)c45)c3C#N)C2)C1 [Compound I-16, 2-(2-acryloyl-2,6-diazaspiro[3.4]octan-6-yl)-6-(1,6-dimethyl-1H-indazol-7-yl)-4-morpholino-benzonitrile] | +++ (+++ indicates binding activity greater than 75%)
19 | C=CC(=O)N1CC2(CCN(c3cccc(-c4c(O)cccc4F)c3C#N)C2)C1 [Compound I-17, 3-(2-acryloyl-2,6-diazaspiro[3.4]octan-6-yl)-2′-fluoro-6′-hydroxy-[1,1′-biphenyl]-2-carbonitrile] | + (+ indicates binding activity greater than 0% and up to 50%)

Same assay, conditions: tested at a concentration of 8 μM

Row | Structure (SMILES) | Bind %
20 | C=CC(=O)N1CC2(CCN(c3ccc(F)c(-c4c(C)ccc5[nH]ncc45)c3C#N)C2)C1 (atropisomer, axis not shown) [Compound I-43, (R)-6-(2-acryloyl-2,6-diazaspiro[3.4]octan-6-yl)-3-fluoro-2-(5-methyl-1H-indazol-4-yl)benzonitrile] | +++ (+++ indicates binding activity greater than 75%)
21 | C=CC(=O)N1CC2(CCN(c3ccc(F)c(-c4c(C)ccc5cnn(C)c45)c3C#N)C2)C1 (atropisomer, axis not shown) [Compound I-44, (S)-6-(2-acryloyl-2,6-diazaspiro[3.4]octan-6-yl)-2-(1,6-dimethyl-1H-indazol-7-yl)-3-fluorobenzo-nitrile] | +++ (+++ indicates binding activity greater than 75%)
22 | C=CC(=O)N1CC2(CCN(c3ccc(F)c(-c4c(C)ccc5cnn(C)c45)c3C#N)C2)C1 (atropisomer, axis not shown) [Compound I-45, (R)-6-(2-acryloyl-2,6-diazaspiro[3.4]octan-6-yl)-2-(1,6-dimethyl-1H-indazol-7-yl)-3-fluorobenzo-nitrile] | + (+ indicates binding activity greater than 0% and up to 50%)
